According to patent publication US20140350273A1, “PEDIATRIC USES OF CABAZITAXEL” (AVENTIS PHARMA S.A., priority 2012, published 2014):
Like-named read-outs stand apart in the source and are kept apart here.

Tested on: human osteosarcoma DM113
Format: in vivo
Conditions: for Tumor Volume Data (Day 28) Median / ΔT/ΔC %: day 28; for MTTE / T-C: volume endpoint 1600 mm^3
Experimental: The resultant solution contains 10 mg/mL of cabazitaxel. Stock solution of cabazitaxel was then diluted in 0.9% sodium chloride.
This efficacy may be quantified, for example, as changes in tumor volume for each treated (T) and control (C) group, which are calculated for each animal and each day by subtracting the tumor volume on the day of first treatment (staging day) from the tumor volume on the specified observation day. This allows calculating the tumor growth inhibition: ΔT/ΔC=(median delta T/median delta C)×100. Individual tumor volume changes from baseline are thereafter analyzed by a non-parametric two-way ANOVA-TYPE (with factors: group and repeated days) followed by a post-hoc contrasts analysis, with Bonferroni-Holm adjustment for multiplicity, comparing all treated groups to the control group. […] A probability less than 5% (p<0.05) was considered as significant.
Based on the National Cancer Institute (NCl) standards, a ΔT/ΔC≦40% is the minimal level required to declare activity.
This efficacy may also be quantified by the number of tumor regressions observed after therapy. Individual mice reporting a tumor volume ≦50% of the Day 0 measurement for two consecutive measurements over a seven day period were considered partial responders (PR). Individual mice lacking palpable tumors (<4×4 mm^2 for two consecutive measurements over a seven day period) were classified as complete responders (CR); a CR that persisted until study completion was considered a tumor-free survivor (TFS).
Efficacy could also be determined at study completion, using tumor growth delay (T-C) in days, which is calculated using the median time to endpoint (MTTE) value for each treatment (T) group versus control (C). A Log Rank multiple comparison test with Bonferroni-Holm adjustment for multiplicity was applied on individual TTE to compare the treated groups to the control group.
The animals subjected to the experiment are subcutaneously grafted unilaterally with approximately 30 mg of a tumor fragment from low passage pediatric patient-derived tumor xenografts. The animals are implanted with a human patient-derived pediatric tumor xenografted in immuno-compromised mice (Harlan; nu/nu). Several days post tumor implantation, mice are randomized according to their tumor burden to the different groups of treatments and controls. The agents are dosed intravenously at 5.8, 9.3, 15 or 24.2 mg/kg every 4 days for a total of 3 doses (q4d×3) to mice bearing a tumor burden at start of therapy (day 0) ranged from 125 to 250 mm^3.
Beginning Day 0, animals were observed daily and weighed twice weekly using a digital scale; data including individual and mean gram weights (Mean We±SD), mean percent weight change versus Day 0 were recorded for each group. Animal deaths were recorded daily and designated as drug-related (D), technical (T), tumor related (B), or unknown (U) based on weight loss and gross observation; single agent or combination groups reporting a mean >20% for a period of 7 days and/or >10% mortality were considered above the maximum tolerated dose (MTD) for that treatment on the evaluated regimen.
The selected tumor model, DM113, was a low passage patient-derived tumor xenograft derived from an osteosarcoma taken from the lung of a patient.
The following end points were used: • Toxicity was declared at dosages inducing ≧20% body weight loss or ≧10% drug death; • Antitumor efficacy was determined by calculating the ΔT/ΔC value in percent on day 28 post treatment initiation, according to the above mentioned formula; • Individual tumor volume changes from baseline were analyzed by a non-parametric two-way ANOVA-TYPE (with factors: group and repeated day from 3 to 28) followed by a post-hoc contrasts analysis, with Bonferroni-Holm adjustment for multiplicity, comparing all treated groups to the control group on day 28. […] The volume endpoint for T-C calculations was chosen to be 1600 mm^3.

## CO[C@H]1C(=O)[C@]2(C)[C@@H](OC)C[C@H]3OC[C@@]3(OC(C)=O)[C@H]2[C@H](OC(=O)c2ccccc2)[C@]2(O)C[C@H](OC(=O)[C@H](O)[C@@H](NC(=O)OC(C)(C)C)c3ccccc3)C(C)=C1C2(C)C [Cabazitaxel, 4α-acetoxy-2α-benzoyloxy-5β,20-epoxy-1β-hydroxy-7β,10β-dimethoxy-9-oxo-11-taxen-13α-yl (2R,3S)-3-tert-butoxycarbonyl-amino-2-hydroxy-3-phenylpropionate]
5.8 mg/kg i.v./q4dx3
  #CR: 0/0/0
  #PR: 0/0/0
  #TFS: 0/0/0
  Drug Deaths Total: 0
  Tumor Volume Data (Day 28) Median: 512.5 mm^3
  ΔT/ΔC %: 29.4%
  MTTE: 47 days
  T-C: 16 days
5.8 mg/kg, DAY 3
  tumor volume changes from baseline, Median +/− MAD: 58 +/− 21.5
5.8 mg/kg, DAY 8
  tumor volume changes from baseline, Median +/− MAD: 63.5 +/− 37
5.8 mg/kg, DAY 11
  tumor volume changes from baseline, Median +/− MAD: 63.5 +/− 21.5
5.8 mg/kg, DAY 14
  tumor volume changes from baseline, Median +/− MAD: 95 +/− 41.5
5.8 mg/kg, DAY 17
  tumor volume changes from baseline, Median +/− MAD: 95 +/− 59
5.8 mg/kg, DAY 21
  tumor volume changes from baseline, Median +/− MAD: 158.5 +/− 39.5
5.8 mg/kg, DAY 24
  tumor volume changes from baseline, Median +/− MAD: 234 +/− 83.5
5.8 mg/kg, DAY 28
  tumor volume changes from baseline, Median +/− MAD: 334.5 +/− 96
5.8 mg/kg, DAY 31
  tumor volume changes from baseline, Median +/− MAD: 459.5 +/− 123
5.8 mg/kg, DAY 35
  tumor volume changes from baseline, Median +/− MAD: 579.5 +/− 228
5.8 mg/kg, DAY 38
  tumor volume changes from baseline, Median +/− MAD: 834.5 +/− 245
5.8 mg/kg, DAY 42
  tumor volume changes from baseline, Median +/− MAD: 1097 +/− 248
5.8 mg/kg, DAY 46
  tumor volume changes from baseline, Median +/− MAD: 1548.5 +/− 438.5
9.3 mg/kg i.v./q4dx3
  #CR: 0/0/0
  #PR: 0/0/0
  #TFS: 0/0/0
  Drug Deaths Total: 0
  Weight Nadir %: −3%
  Weight Nadir Day: 3
  Tumor Volume Data (Day 28) Median: 204 mm^3
  ΔT/ΔC %: 1.8%
  MTTE: >59 days
  T-C: >28 days
9.3 mg/kg, DAY 3
  tumor volume changes from baseline, Median +/− MAD: 29.5 +/− 27
9.3 mg/kg, DAY 8
  tumor volume changes from baseline, Median +/− MAD: 29.5 +/− 29.5
9.3 mg/kg, DAY 11
  tumor volume changes from baseline, Median +/− MAD: 29.5 +/− 29.5
9.3 mg/kg, DAY 14
  tumor volume changes from baseline, Median +/− MAD: 9 +/− 9
9.3 mg/kg, DAY 17
  tumor volume changes from baseline, Median +/− MAD: 0 +/− 0
9.3 mg/kg, DAY 21
  tumor volume changes from baseline, Median +/− MAD: 0 +/− 9
9.3 mg/kg, DAY 24
  tumor volume changes from baseline, Median +/− MAD: 0 +/− 31
9.3 mg/kg, DAY 28
  tumor volume changes from baseline, Median +/− MAD: 20 +/− 39.5
9.3 mg/kg, DAY 31
  tumor volume changes from baseline, Median +/− MAD: 69 +/− 69
9.3 mg/kg, DAY 35
  tumor volume changes from baseline, Median +/− MAD: 87.5 +/− 70.5
9.3 mg/kg, DAY 38
  tumor volume changes from baseline, Median +/− MAD: 182 +/− 155.5
9.3 mg/kg, DAY 42
  tumor volume changes from baseline, Median +/− MAD: 311 +/− 248
9.3 mg/kg, DAY 46
  tumor volume changes from baseline, Median +/− MAD: 576 +/− 317.5
15 mg/kg i.v./q4dx3
  #CR: 0
  #PR: 4
  #TFS: 0
  Drug Deaths Total: 0
  Weight Nadir %: −9%
  Weight Nadir Day: 14
  Tumor Volume Data (Day 28) Median: 131 mm^3
  ΔT/ΔC %: −4.4%
  MTTE: >59 days
  T-C: >28 days
15 mg/kg q4d×3 IV
  numbers of PR: 4/10
15 mg/kg, DAY 3
  tumor volume changes from baseline, Median +/− MAD: 13 +/− 13
15 mg/kg, DAY 8
  tumor volume changes from baseline, Median +/− MAD: 0 +/− 0
15 mg/kg, DAY 11
  tumor volume changes from baseline, Median +/− MAD: −23.5 +/− 23.5
15 mg/kg, DAY 14
  tumor volume changes from baseline, Median +/− MAD: −40.5 +/− 30
15 mg/kg, DAY 17
  tumor volume changes from baseline, Median +/− MAD: −40.5 +/− 30
15 mg/kg, DAY 21
  tumor volume changes from baseline, Median +/− MAD: −40.5 +/− 30
15 mg/kg, DAY 24
  tumor volume changes from baseline, Median +/− MAD: −50 +/− 36.5
15 mg/kg, DAY 28
  tumor volume changes from baseline, Median +/− MAD: −50 +/− 36.5
15 mg/kg, DAY 31
  tumor volume changes from baseline, Median +/− MAD: −53 +/− 36.5
15 mg/kg, DAY 35
  tumor volume changes from baseline, Median +/− MAD: −59.5 +/− 29
15 mg/kg, DAY 38
  tumor volume changes from baseline, Median +/− MAD: −59.5 +/− 39.5
15 mg/kg, DAY 42
  tumor volume changes from baseline, Median +/− MAD: −59.5 +/− 39.5
15 mg/kg, DAY 46
  tumor volume changes from baseline, Median +/− MAD: −59.5 +/− 42.5
24.2 mg/kg i.v./q4dx3
  #CR: 0
  #PR: 5
  #TFS: 0
  Drug Deaths Total: 0
  Weight Nadir %: −11%
  Weight Nadir Day: 11
  Tumor Volume Data (Day 28) Median: 112 mm^3
  ΔT/ΔC %: −3.6%
  MTTE: >59 days
  T-C: >28 days
24.2 mg/kg q4d×3 IV
  numbers of PR: 5/10
24.2 mg/kg, DAY 3
  tumor volume changes from baseline, Median +/− MAD: 9.5 +/− 9.5
24.2 mg/kg, DAY 8
  tumor volume changes from baseline, Median +/− MAD: 0 +/− 26.5
24.2 mg/kg, DAY 11
  tumor volume changes from baseline, Median +/− MAD: −40.5 +/− 34
24.2 mg/kg, DAY 14
  tumor volume changes from baseline, Median +/− MAD: −43.5 +/− 28.5
24.2 mg/kg, DAY 17
  tumor volume changes from baseline, Median +/− MAD: −40.5 +/− 24.5
24.2 mg/kg, DAY 21
  tumor volume changes from baseline, Median +/− MAD: −40.5 +/− 24.5
24.2 mg/kg, DAY 24
  tumor volume changes from baseline, Median +/− MAD: −40.5 +/− 40.5
24.2 mg/kg, DAY 28
  tumor volume changes from baseline, Median +/− MAD: −40.5 +/− 40.5
24.2 mg/kg, DAY 31
  tumor volume changes from baseline, Median +/− MAD: −40.5 +/− 34
24.2 mg/kg, DAY 35
  tumor volume changes from baseline, Median +/− MAD: −51 +/− 41.5
24.2 mg/kg, DAY 38
  tumor volume changes from baseline, Median +/− MAD: −51 +/− 41.5
24.2 mg/kg, DAY 42
  tumor volume changes from baseline, Median +/− MAD: −51 +/− 41.5
24.2 mg/kg, DAY 46
  tumor volume changes from baseline, Median +/− MAD: −51 +/− 41.5
Conclusion of example 5, 9.3, 15 and 24.2 mg/kg dose levels
  antitumor activity compared with docetaxel: higher efficacy than docetaxel
